Source: the supplement of paper PMC4862054

Columns and labels:
Settings in all cases: incubation time: 72 h
CAL-148 [1] = assay: normalised response (% of control), CellTiter-Glo; higher = more viable cells (100 = DMSO, 0 = benzethonium chloride kill control)
Outline: (§1)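 The table gives the normalised signal for a single concentration in each entry. Breast cancer cell lines were seeded (20 µl suspension) into 384-well plates holding compound at 5 concentrations in 10-fold steps over a compound-specific 10,000-fold range and incubated 72 h, then read for CellTox Green fluorescence (485/520 nm) and CellTiter-Glo luminescence. Normalisation on each plate used 0.1 % DMSO (100) and a positive kill control (0).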

MDA-MB-231 [2] = assay: as above
Outline: as §1

CAL-120 [3] = assay: as above
Outline: as §1

MDA-MB-468 [4] = assay: as above
Outline: as §1

CAL-51 [5] = assay: as above
Outline: as §1

BT-474 [6] = assay: as above
Outline: as §1

MFM-223 [7] = assay: as above
Outline: as §1

MCF-10A [8] = assay: as above
Outline: as §1

HCC1937 [9] = assay: as above
Outline: as §1

SK-BR-3 = assay: as above
Outline: as §1

HCC1143 [10] = assay: as above
Outline: as §1

Hs578T [11] = assay: as above
Outline: as §1

DU-4475 [12] = assay: as above
Outline: as §1

MDA-MB-436 [13] = assay: as above
Outline: as §1

CAL-85-1 [14] = assay: as above
Outline: as §1

HDQ-P1 [15] = assay: as above
Outline: as §1

HCC1599 [16] = assay: as above
Outline: as §1

MDA-MB-453 [17] = assay: as above
Outline: as §1

BT-549 [18] = assay: as above
Outline: as §1

CAL-148 [19] = assay: normalised response (% of control), CellTox Green; higher = less cell death (100 = DMSO, 0 = benzethonium chloride kill control)
Outline: as §1

MDA-MB-231 [20] = assay: as above
Outline: as §1

CAL-120 [21] = assay: as above
Outline: as §1

MDA-MB-468 [22] = assay: as above
Outline: as §1

CAL-51 [23] = assay: as above
Outline: as §1

BT-474 [24] = assay: as above
Outline: as §1

MFM-223 [25] = assay: as above
Outline: as §1

MCF-10A [26] = assay: as above
Outline: as §1

HCC1937 [27] = assay: as above
Outline: as §1

HCC1143 [28] = assay: as above
Outline: as §1

Hs578T [29] = assay: as above
Outline: as §1

DU-4475 [30] = assay: as above
Outline: as §1

MDA-MB-436 [31] = assay: as above
Outline: as §1

CAL-85-1 [32] = assay: as above
Outline: as §1

HDQ-P1 [33] = assay: as above
Outline: as §1

HCC1599 [34] = assay: as above
Outline: as §1

MDA-MB-453 [35] = assay: as above
Outline: as §1

BT-549 [36] = assay: as above
Outline: as §1

Row | SMILES | normalised response (CAL-148 [1]) [%] | normalised response (MDA-MB-231 [2]) [%] | normalised response (CAL-120 [3]) [%] | normalised response (MDA-MB-468 [4]) [%] | normalised response (CAL-51 [5]) [%] | normalised response (BT-474 [6]) [%] | normalised response (MFM-223 [7]) [%] | normalised response (MCF-10A [8]) [%] | normalised response (HCC1937 [9]) [%] | normalised response (SK-BR-3) [%] | normalised response (HCC1143 [10]) [%] | normalised response (Hs578T [11]) [%] | normalised response (DU-4475 [12]) [%] | normalised response (MDA-MB-436 [13]) [%] | normalised response (CAL-85-1 [14]) [%] | normalised response (HDQ-P1 [15]) [%] | normalised response (HCC1599 [16]) [%] | normalised response (MDA-MB-453 [17]) [%] | normalised response (BT-549 [18]) [%] | normalised response (CAL-148 [19]) [%] | normalised response (MDA-MB-231 [20]) [%] | normalised response (CAL-120 [21]) [%] | normalised response (MDA-MB-468 [22]) [%] | normalised response (CAL-51 [23]) [%] | normalised response (BT-474 [24]) [%] | normalised response (MFM-223 [25]) [%] | normalised response (MCF-10A [26]) [%] | normalised response (HCC1937 [27]) [%] | normalised response (HCC1143 [28]) [%] | normalised response (Hs578T [29]) [%] | normalised response (DU-4475 [30]) [%] | normalised response (MDA-MB-436 [31]) [%] | normalised response (CAL-85-1 [32]) [%] | normalised response (HDQ-P1 [33]) [%] | normalised response (HCC1599 [34]) [%] | normalised response (MDA-MB-453 [35]) [%] | normalised response (BT-549 [36]) [%]
1 | NS(=O)(=O)OC[C@@H]1C[C@@H](n2ccc3c(N[C@H]4CCc5ccccc54)ncnc32)C[C@@H]1O [Pevonedistat] (1000 nM) | 118 | 71 | 61.9 | 33 | 21.2 | 63.6 | 59.5 | 107 | 83.3 | 35.5 | 61.2 | 73.2 | 0.82 | 34.6 | 49.9 | 89.3 | 40 | 80.6 | 34.6 | 104 | 106 | 96.4 | 49.4 | -16 | 101 | 102 | 115 | 72.7 | 96.1 | 85 | 76.2 | 80.8 | 86.6 | 104 | 95 | 99.4 | 85
2 | CO[C@H]1C[C@@H]2CC[C@@H](C)[C@@](O)(O2)C(=O)C(=O)N2CCCC[C@H]2C(=O)O[C@H]([C@H](C)C[C@@H]2CC[C@@H](OCCO)[C@H](OC)C2)CC(=O)[C@H](C)/C=C(\C)[C@@H](O)[C@@H](OC)C(=O)[C@H](C)C[C@H](C)/C=C/C=C/C=C/1C [Everolimus] (10 nM) | 51.9 | 85.7 | 64.9 | 52.1 | 61.6 | 80.7 | 62.6 | 79.2 | 69.7 | 53.7 | 62.6 | 71.9 | 68.2 | 77.8 | 67.1 | 78.7 | 88.8 | 55.2 | 64.9 | 88 | 103 | 101 | 178 | 97.5 | 99.8 | 71.1 | 106 | 114 | 109 | 85.6 | 96 | 81.7 | 109 | 105 | 91.6 | 104 | 51
3 | COc1ccc(-c2ccc3c(N4CCOC[C@@H]4C)nc(N4CCOC[C@@H]4C)nc3n2)cc1CO [AZD8055] (1000 nM) | 13.9 | 36.5 | 18 | 23.6 | 20.3 | 46.6 | 27.6 | 27.8 | 45.7 | 20.3 | 24.2 | 29.4 | 23.2 | 45.8 | 25.3 | 32.3 | 67.2 | 31.3 | 21.5 | 39.6 | 87.4 | 96 | 118 | 80.1 | 86.1 | 93.6 | 91.7 | 56.8 | 74.1 | 102 | 83.3 | 92.4 | 87.8 | 103 | 94.2 | 104 | 116
4 | CC(C)(C#N)c1cc(Cn2cncn2)cc(C(C)(C)C#N)c1 [Anastrozole] (1000 nM) | 93.3 | 106 | 96.7 | 106 | 122 | 104 | 105 | 105 | 94.5 | 108 | 101 | 103 | 98.2 | 100 | 103 | 96.5 | 123 | 96.9 | 99.2 | 93.9 | 104 | 101 | 85.1 | 113 | 99.8 | 101 | 105 | 106 | 61.9 | 62.7 | 100 | 103 | 110 | 111 | 102 | 96.5 | 106
5 | COc1ccccc1S(=O)(=O)Nc1ccc2c(c1)CN(C)C(=O)N2 [PFI-1] (1000 nM) | 107 | 89.2 | 91.3 | 95 | 87.7 | 89.8 | 97.8 | 98.6 | 90.9 | 103 | 94.1 | 85 | 97.7 | 93.9 | 87 | 91.9 | 86.7 | 91.1 | 76.9 | 103 | 105 | 111 | 140 | 116 | 98.7 | 87.8 | 105 | 91.9 | 95 | 98.2 | 107 | 115 | 121 | 109 | 110 | 121 | 111
6 | O=C(O)CCCc1ccc(N(CCCl)CCCl)cc1 [Chlorambucil] (1000 nM) | 95.5 | 99.8 | 94.7 | 101 | 108 | 96.7 | 103 | 102 | 95 | 101 | 100 | 105 | 105 | 103 | 103 | 97.4 | 91.9 | 102 | 111 | 104 | 103 | 98.5 | 103 | 113 | 98.2 | 95.5 | – | 85.3 | 98.2 | 108 | 102 | 93.3 | 110 | 103 | 96.9 | 100 | 115
7 | Nc1ncnc2c1c(COc1cccc(Cl)c1)nn2C1CCOCC1 (1000 nM) | 102 | 104 | 111 | 96.6 | 105 | 104 | 104 | 104 | 103 | 107 | 104 | 97.1 | 102 | 106 | 93.4 | 107 | 113 | 103 | 88.6 | 105 | 115 | 103 | 99.3 | 118 | 98.3 | 103 | – | 124 | 119 | 104 | 108 | 107 | 108 | 114 | 74.4 | 110 | 96.5
8 | CC(C)c1c(C(=O)Nc2ccccc2)c(-c2ccccc2)c(-c2ccc(F)cc2)n1CC[C@@H](O)C[C@@H](O)CC(=O)O [Atorvastatin] (1000 nM) | 105 | 59.1 | 90.5 | 93.2 | 90.2 | 66.1 | 99.1 | 84 | 96.6 | 102 | 93.4 | 101 | 99.9 | 92.6 | 91.9 | 74.8 | 95.6 | 99.4 | 95.6 | 103 | 34 | 98.2 | 87.3 | – | 99.9 | 89.4 | 83.6 | 88.3 | 114 | 97.4 | 101 | 96.6 | 110 | 103 | 100 | 94.1 | 97.4
